According to patent US20090176817A1, “Method of Treatment of Diarrhea-Predominant Irritable Bowel Syndrome in a Subject” (priority 2005, published 2009):
Where two headings read alike, the source gives them in different places.

Columns and labels:
clinical [1] = details: human, in vivo, po
Method: Two randomized, double-blind, placebo controlled, rising dose, crossover studies evaluated the single-dose pharmacokinetics of oral cilansetron over a 4 mg to 64 mg dose range. In one study, 24 male subjects (aged 21-36 years) received, at intervals of […], single oral doses of 4, 8, and 16 mg cilansetron in ascending order and a randomized placebo. In the other study, 24 male subjects received, at intervals of ≧1 week, single oral doses of 16, 32, and 64 mg cilansetron in ascending order and a randomized placebo. All doses were administered under fasted conditions. […] Renal excretion of cilansetron was negligible across all doses, with undetectable or very low amounts (<1% of the dose) excreted unchanged in urine.
Data for the evaluation of dose proportionality of oral cilansetron is available from three studies which have evaluated the pharmacokinetics of single doses over a 2 mg to 64 mg dose range. Two randomized, double-blind, placebo controlled, rising dose, crossover studies, in 24 male subjects each, evaluated the single dose pharmacokinetics of oral cilansetron (capsules) over a 4-16 mg and 16-64 mg dose range, respectively. In each study, subjects received, at intervals of ≧1 week, single oral doses of cilansetron in ascending order and a randomized placebo. All doses were administered under fasted conditions. A third open-label, randomized, parallel-group study in 36 male and female subjects, evaluated the single dose pharmacokinetics of a cilansetron 2 mg tablet administered under fed conditions. FIG. 16 to FIG. 19 present box plots of cilansetron AUC(0-inf) and Cmax from these three studies (males only), and corresponding dose-normalized values (normalized to a 1 mg dose). […] Table 2.7.2.3.14 presents descriptive statistics of cilansetron dose-normalized AUC and Cmax in these studies, and the results of statistical comparisons between doses.

[2] = assay type: in vitro ADME; details: human
Method: Protein binding was also evaluated in an in vitro study in human, mouse, rat, and dog plasma using equilibrium dialysis (12-14K molecular weight cut-off membrane). […] This study also measured the binding of (^14C)-cilansetron to purified human serum albumin at cilansetron concentrations ranging from 30-3000 ng/mL and to purified human alpha-1 acid glycoprotein (AAG) at concentrations ranging from 30-10000 ng/mL.

IBS patients = assay: Study K.241.5016: colonic visceral perception; assay type: in vivo, human
Method: The effect of cilansetron on colonic visceral perception was evaluated in a randomized, doubleblind, placebo-controlled, 2-way crossover study in 16 male and female IBS patients (ITT population), aged 28-66 years. Subjects received single IV doses of placebo or cilansetron 16 mg as 30-minute infusions on two consecutive study days, with no washout between the study days. Colonic distension tests were performed just prior to dosing and after completion of the infusion during each treatment. An electronic barostat was used to produce distensions (successive 4 mmHg increases every 5 minutes, up to a sensation of abdominal pain or a maximum of 40 mmHg). The primary efficacy parameter was the mean distension pressure inducing a sensation of abdominal pain. Secondary effect parameters were the mean distension pressure inducing a sensation of abdominal discomfort, and the response rate, defined as the number of patients experiencing no abdominal pain at the maximum pressure of 40 mmHg. The primary and secondary parameters were compared between cilansetron and placebo treatments using an ANOVA.

[3] = tested on: diarrhea-predominant IBS subjects; assay: Study S241.3.011: safety; assay type: in vivo, human
Excerpt: The primary efficacy parameter was the number of months that a subject was a responder for IBS symptoms (abdominal pain, abdominal discomfort, abnormal bowel habits) over the 12-week treatment period. A responder for a month (monthly responder) was defined as a subject who answered the weekly question with “yes” at least twice for that month. The two main secondary efficacy parameters were the monthly responder rates based on the “adequate relief” questions regarding abdominal pain/discomfort and abnormal bowel habits during the 12-week treatment period. The overall response rate and responder rate for the weekly diary questions on adequate relief at each month and all months, the adequate relief rate, the number of subjects with adequate relief by week, daily diary questions, IBS-QOL scores, and the interruption of activities were also assessed. Safety was evaluated by physical examination, ECG, vital signs, laboratory evaluations, concomitant medications, and AEs.

[4] = both, human, in vivo
Method: The effect of hepatic impairment on the pharmacokinetics of cilansetron was evaluated in a multiple-dose, parallel group study in 14 healthy and 14 moderately to severely hepatically impaired male and female subjects, aged 41-70 years. Impaired subjects (Child-Pugh score 7 to 11) were matched to healthy subjects by age (±2 years), sex, menstrual status, and smoking history status. All subjects received oral cilansetron 8 mg TID on Days 1 to 5, and a single dose on the morning of Day 6. […] Blood samples were also collected at predose on Day 1, and at predose, 1 hour and 1.5 hours postdose on Day 6, for measurement of cilansetron protein binding in serum.

clinical [5] = details: both, human, serum, Fraction Unbound in Serum
Method: The ex vivo protein binding of cilansetron and its 4-hydroxy metabolites has been measured in serum samples collected in a multiple-dose study in healthy and renally impaired male and female subjects, aged 33-74 years. […] Healthy subjects were matched to renally-impaired subjects with respect to age, weight, gender, and smoking status. All subjects received oral cilansetron 2 mg TID on Days 1 to 5, and a single dose on the morning of Day 6.

[6] = 16 mg single IV dose, ANOVA, not significant
[7] = 16 mg single IV dose, postdose minus predose, IBS patients, mean (SD)

For Cc1nccn1C[C@H]1CCc2c(c3cccc4c3n2CCC4)C1=O [Cilansetron, (R)-(−)-4,5,6,8,9,10-hexahydro-10-[(2-methyl-1H-imidazol-1-yl)methyl]-11H-pyrido-[3,2,1-jk]-carbazol-11-one], the CL/F (clinical [1]; 4 mg) was 3864 (69) mL/min, the CL/F (clinical [1]; 8 mg) was 3851 (103) mL/min and the “DN-AUC(0-inf) ratio 8 mg/4 mg” value (clinical [1]; male) was 109%. For the same compound, the “DN-AUC(0-inf) ratio 16 mg/4 mg” value (clinical [1]; male) was 117%, the “DN-AUC(0-inf) ratio 16 mg/8 mg” value (clinical [1]; male) was 108% and the “DN-AUC(0-last) ratio 8 mg/4 mg” value (clinical [1]; male) was 120%. The “DN-AUC(0-last) ratio 16 mg/4 mg” value (clinical [1]; male) was 132%, the “DN-AUC(0-last) ratio 16 mg/8 mg” value (clinical [1]; male) was 110% and the “DN-Cmax ratio 8 mg/4 mg” value (clinical [1]; male) was 115%. The “DN-Cmax ratio 16 mg/4 mg” value (clinical [1]; male) was 122%, the “DN-Cmax ratio 16 mg/8 mg” value (clinical [1]; male) was 107% and the “Dose excreted unchanged in urine” value (clinical [1]; male) was less than 1%. For the same compound, the Tmax (clinical [1]; male) was 1 to 1.25 h, the half-life (clinical [1]; male) was 1.2 to 1.6 h and the AUC(0-inf) (clinical [1]; male, 4 mg) was 26.7 ng·h/mL. The AUC(0-t) (clinical [1]; male, 4 mg) was 23.2 ng·h/mL, the Cmax (clinical [1]; male, 4 mg) was 9.88 ng/mL and the Tmax (clinical [1]; male, 4 mg) was 1.25 h. It also gave a Vd/F (clinical [1]; male, 4 mg) of 522 L, a half-life (clinical [1]; male, 4 mg) of 1.56 h and an AUC(0-inf) (clinical [1]; male, 8 mg) of 59.4 ng·h/mL. The AUC(0-t) (clinical [1]; male, 8 mg) was 55.5 ng·h/mL, the Cmax (clinical [1]; male, 8 mg) was 22.1 ng/mL and the Tmax (clinical [1]; male, 8 mg) was 1 h. The Vd/F (clinical [1]; male, 8 mg) was 472 L, the half-life (clinical [1]; male, 8 mg) was 1.47 h and the Tmax (clinical [1]; male, 16 mg) was 1 h. For the same compound, the Protein bound [2] was 93-96%, the “Responders (no abdominal pain at 40 mmHg)” value (IBS patients; 16 mg IV) was 1 of 12 and the “Pressure inducing abdominal pain, Mean Difference to Placebo” value (IBS patients; [6]) was −1.33 mmHg. For the same compound, the “Pressure inducing abdominal sensation, Mean Difference to Placebo” value (IBS patients; [6]) was −0.67 mmHg, the “Pressure inducing abdominal pain, Difference Postdose” value (IBS patients; [7]) was 3.67 (4.66) mmHg and the “Pressure inducing abdominal sensation, Difference Postdose” value (IBS patients; [7]) was 2.67 (3.55) mmHg. For the same compound, the “Number of subjects who died during the three-month treatment period” value ([3]; 2 mg TID, 388 randomized, S241.3.011) was 1 (<1) n (%), the Constipation ([3]; female, human, in vivo, 3 months) was 26% and the “Fecal occult blood positive and/or blood in stool” value ([3]; human, in vivo) was 7%. The Abdominal distension ([3]; human, in vivo, 3 months) was 5%, the “Abdominal pain NOS” value ([3]; human, in vivo, 3 months) was 6% and the Abdominal pain upper ([3]; human, in vivo, 3 months) was 2%. For the same compound, the Constipation ([3]; human, in vivo, 3 months) was 20%, the Flatulence ([3]; human, in vivo, 3 months) was 4% and the “Serious AEs” value ([3]; human, in vivo, 3 months) was 2%. For the same compound, the “Subjects with at least one TEAE” value ([3]; human, in vivo, 3 months) was 69%, the “At least one TEAE, entire four-month period” value ([3]; human, in vivo, 4 months) was 78% and the “TEAEs leading to permanent discontinuation” value ([3]; in vivo) was “Eleven”. For the same compound, the Constipation ([3]; male, human, in vivo, 3 months) was 8%, the “Increase in half-life with hepatic impairment” value [4] was 2 fold and the “AUC increase with hepatic impairment” value ([4]; 8 mg) was 88%. The “Cmax increase with hepatic impairment” value ([4]; 8 mg) was 22%, the “AUC(0-τ) Ratio” value ([4]; po, 8 mg) was 1.88 and the “AUC(0-τ), Geom. LS Mean” value ([4]; po, 8 mg) was 178 ng·h/mL. For the same compound, the Cmax ([4]; po, 8 mg) was 75.2 (40) ng/mL, the “Cmax Ratio” value ([4]; po, 8 mg) was 1.22 and the “Cmax, Geom. LS Mean” value ([4]; po, 8 mg) was 68.7 ng/mL. The T½ ([4]; po, 8 mg) was 4.37 (25) h, the Vz/F ([4]; po, 8 mg) was 303 (45) L and the fraction unbound (clinical [5]) was 0.0396. The fraction unbound at 1 h (clinical [5]) was 0.0351 and the fraction unbound at […] (clinical [5]) was 0.034.
